Earlier results on one compound are cited in US20170027976A1, “NOVEL ADEMETIONINE FORMULATIONS” (METHYLATION SCIENCES INTERNATIONAL SRL, priority 2014, published 2017).

The conditions of the series: background statement; large daily doses required.

For the compound `C[S+](CC[C@H](N)C(=O)[O-])C[C@H]1O[C@@H](n2cnc3c(N)ncnc32)[C@H](O)[C@@H]1O` (stereo partly drawn) [ademetionine, S-adenosyl-L-methionine], the uptake of ademetionine is recorded as < 5%.
